The IC50 is the concentration that inhibits the measured activity by half. Lower therefore signals greater potency.

Counter-ions that a name gives are not always drawn.

From patent publication US9090570B2, “Compounds for inflammation and immune-related uses” (Synta Pharmaceuticals Corp., priority 2005, dated 2015) come the findings set out here.

In the first experiment the test system is IL-2 production. Briefly: Inhibition of IL-2 production in PHA-activated Jurkat cells (ELISA). The format is cell-based. As to conditions: Homo sapiens, Jurkat, 20 h, PHA 2.5 μg/mL, IL-2 ELISA. The protocol: Jurkat cells were placed in a 96 well plate (0.5 million cells per well in 1% FBS medium) then a test compound of this invention was added at different concentrations. After 10 minutes, the cells were activated with PHA (final concentration 2.5 μg/mL) and incubated for 20 hours at 37° C. under CO2. The final volume was 200 μL. Following incubation, the cells were centrifuged and the supernatants collected and stored at −70° C. prior to assaying for IL-2 production. A commercial ELISA kit (IL-2 Eli-pair, Diaclone Research, Besancon, France) was used to detect production of IL-2, from which dose response curves were obtained. The IC50 value was calculated as the concentration at which 50% of maximum IL-2 production after stimulation was inhibited versus a non-stimulation control.
(In general: In an ELISA, binding on a coated surface is turned into a signal by an enzyme label.)
In the case of `O=C(Nc1cnc(-c2cc(C(F)(F)F)ccc2Cl)cn1)c1c(F)cccc1F` [Compound 4, N-[5-(2-Chloro-5-trifluoromethyl-phenyl)-pyrazin-2-yl]-2,6-difluoro-benzamide hydrochloride], the IC50 was determined as 0.006 µM.

The experiment is the same for the next values; noted with them: Homo sapiens, PHA 2.5 μg/mL, 20 hours, IL-2 ELISA.
As for `O=C(Nc1cnc(-c2cc(C(F)(F)F)ccc2Cl)cn1)c1c(F)cccc1F` [Compound 1, N-[5-(2-Chloro-5-trifluoromethyl-phenyl)-pyrazin-2-yl]-2,6-difluoro-benzamide], inhibition was half-maximal at 0.002 µM (IC50).

`O=C(Nc1cnc(-c2cc(C(F)(F)F)ccc2Cl)cn1)c1ccncc1F` [Compound 2, N-[5-(2-Chloro-5-trifluoromethyl-phenyl)-pyrazin-2-yl]-3-fluoro-isonicotinamide] gave an IC50 of 0.115 µM.

Take `O=C(Nc1ccc(-c2cc(C(F)(F)F)ccc2Cl)nn1)c1c(F)cccc1F` [Compound 60, N-[6-(2-Chloro-5-trifluoromethyl-phenyl)-pyridazin-3-yl]-2,6-difluoro-benzamide]: the 50% inhibitory concentration (IC50) is over 1 µM.

`Cc1ccc(-c2ncco2)cc1-c1cnc(NC(=O)c2ccncc2F)cn1` [Compound 61, 3-Fluoro-N-[5-(2-methyl-5-oxazol-2-yl-phenyl)-pyrazin-2-yl]-isonicotinamide]: the IC50 was determined as 0.0505 µM.

`Cc1cnccc1C(=O)Nc1cnc(-c2cc(-c3ncco3)ccc2C)cn1` [Compound 62, 3-Methyl-N-[5-(2-methyl-5-oxazol-2-yl-phenyl)-pyrazin-2-yl]-isonicotinamide] registered an IC50 of 0.0322 µM. Compared with the last compound, the IC50 is about 1.6-fold lower.

For `Cc1ccc(-c2ncco2)cc1-c1cnc(NC(=O)c2c(F)cncc2F)cn1` [Compound 63, 3,5-Difluoro-N-[5-(2-methyl-5-oxazol-2-yl-phenyl)-pyrazin-2-yl]-isonicotinamide], the IC50 was determined as 0.0185 µM.

`Cc1ccc(-c2ncco2)cc1-c1cnc(NC(=O)c2snnc2C)cn1` [Compound 64, 4-Methyl-[1,2,3]thiadiazole-5-carboxylic acid [5-(2-methyl-5-oxazol-2-yl-phenyl)-pyrazin-2-yl]-amide] showed an IC50 of 0.055 µM.

On to `COC(=O)c1ccc(C)c(-c2cnc(NC(=O)c3ccncc3F)cn2)c1` [Compound 109, 3-{5-[(3-Fluoro-pyridine-4-carbonyl)-amino]-pyrazin-2-yl}-4-methyl-benzoic acid methyl ester], for which the half-maximal inhibitory concentration (IC50) is 0.0492 µM.

In turn, `COc1ccc(OC)c(-c2cnc(NC(=O)c3c(F)cccc3F)cn2)c1` [Compound 110, N-[5-(2,5-Dimethoxy-phenyl)-pyrazin-2-yl]-2,6-difluoro-benzamide] gave an IC50 of 0.0157 µM. This IC50 lies about 3.1-fold lower than the previous one.

Take `Cc1ncccc1C(=O)Nc1cnc(-c2cc(C(F)(F)F)ccc2Cl)cn1` [Compound 111, N-[5-(2-Chloro-5-trifluoromethyl-phenyl)-pyrazin-2-yl]-2-methyl-nicotinamide]: inhibition was half-maximal at 0.133 µM (IC50).

Consider `O=C(Nc1cnc(-c2cc(C(F)(F)F)ccc2Cl)cn1)C1CCCCC1` [Compound 112, Cyclohexanecarboxylic acid [5-(2-chloro-5-trifluoromethyl-phenyl)-pyrazin-2-yl]-amide], for which the IC50 is 0.0223 µM. Against the preceding compound, the IC50 is about 6-fold lower.

With `COc1ccc(OC)c(-c2cnc(NC(=O)c3ccncc3F)cn2)c1` [Compound 113, N-[5-(2,5-Dimethoxy-phenyl)-pyrazin-2-yl]-3-fluoro-isonicotinamide], inhibition was half-maximal at 0.207 µM (IC50).

In turn, `Cc1nnsc1C(=O)Nc1cnc(-c2cc(C(F)(F)F)ccc2Cl)cn1` [Compound 114, 4-Methyl-[1,2,3]thiadiazole-5-carboxylic acid [5-(2-chloro-5-trifluoromethyl-phenyl)-pyrazin-2-yl]-amide] gave an IC50 of 0.0616 µM. Compared with the last compound, the IC50 is about 3.4-fold lower.

The compound `O=C(Nc1cnc(-c2cc(C(F)(F)F)ccc2Cl)cn1)c1c(F)cncc1F` [Compound 115, N-[5-(2-Chloro-5-trifluoromethyl-phenyl)-pyrazin-2-yl]-3,5-difluoro-isonicotinamide] had an IC50 of 0.0041 µM.

As for `O=C(Nc1ncc(-c2cc(C(F)(F)F)ccc2Cl)cn1)c1c(F)cccc1F` [Compound 116, N-[5-(2-Chloro-5-trifluoromethyl-phenyl)-pyrimidin-2-yl]-2,6-difluoro-benzamide], the IC50 is 0.118 µM.

Turning to `COc1ccc(OC)c(-c2cnc(NC(=O)c3ccncc3C)cn2)c1` [Compound 117, N-[5-(2,5-Dimethoxy-phenyl)-pyrazin-2-yl]-3-methyl-isonicotinamide], half-maximal inhibition (IC50) required 0.145 µM.

On to `COc1ccc(OC)c(-c2cnc(NC(=O)c3c(F)cncc3F)cn2)c1` [Compound 118, N-[5-(2,5-Dimethoxy-phenyl)-pyrazin-2-yl]-3,5-difluoro-isonicotinamide], for which the IC50 worked out at 0.034 µM.

The compound `COc1ccc(OC)c(-c2cnc(NC(=O)c3snnc3C)cn2)c1` [Compound 119, 4-Methyl-[1,2,3]thiadiazole-5-carboxylic acid [5-(2,5-dimethoxy-phenyl)-pyrazin-2-yl]-amide] returned an IC50 of 0.302 µM.

The compound `COc1ccc(OC)c(-c2cnc(NC(=O)C3CCCCC3)cn2)c1` [Compound 120, Cyclohexanecarboxylic acid [5-(2,5-dimethoxy-phenyl)-pyrazin-2-yl]-amide] registered an IC50 of 0.352 µM.

The compound `Cc1ccc(-c2ncco2)cc1-c1cnc(NC(=O)C2CCCCC2)cn1` [Compound 121, Cyclohexanecarboxylic acid [5-(2-methyl-5-oxazol-2-yl-phenyl)-pyrazin-2-yl]-amide] returned an IC50 of 0.0385 µM.

Consider `O=C(Nc1cnc(-c2cc(C(F)(F)F)ccc2Cl)nc1)c1c(F)cccc1F` [Compound 122, N-[2-(2-Chloro-5-trifluoromethyl-phenyl)-pyrimidin-5-yl]-2,6-difluoro-benzamide], for which inhibition was half-maximal at 0.654 µM (IC50).
